Laboratory results published in patent US20120301468A1, “ANTI-MN ANTIBODIES AND METHODS OF USING SAME” (BAYER HEALTHCARE LLC, priority 2005, published 2012).

Assays:
tubulin in HT-29 tumors = assay: In vivo mechanism of action, immunohistochemistry of HT-29 tumors; parameters: species or system athymic mice
Experimental: To explore the in vivo mechanism of action of 3ee9/MMAE, tumors were implanted subcutaneously at right flank of the mice with 5×10^6 HT-29 cells. Eight days later, athymic mice bearing HT-29 tumors were treated with vehicle or with 3ee9/MMAE at 1.25 and 5 mg/kg (Q1Dx1). Tumors were collected and fixed in formalin 4 hours and 1, 3 and 5 hours following administration of 3ee9/MMAE. Samples were then embedded in paraffin, sectioned at 5 μm, de-paraffinized, and stained using standard protocol for fluorescent immunohistochemistry of human tissues using mouse antibodies: Anti-α/β-tubulin, Anti-phospho-Histone H3, and DNA. The slides were then observed under a fluorescent microscope, and representative images were taken through three separate color channels.
3ee9/MMAE had little effect in affecting cell mechanism in the 4 hr samples. […] In addition, decreased level of tubulin staining could be observed. These effects were then highly amplified in the day 3 and day 5 samples.

MN-negative cells (DLD1) = assay: Antibody internalization (Cellomics), DLD1; format: cell-based
In vivo distribution = assay: In vivo distribution; parameters: species or system mice; conditions: Table 4 profile
Source text: The Maestro™ in-vivo imaging system (CRI, Woburn, Mass.) with multi-spectral acquisition and analysis is designed to eliminate auto-fluorescence background. Mabs 3ee9 of BAY 79-4620, M75 (mouse monoclonal recognizing MN) and control human IgG, were conjugated with Alexa Fluor 750 (Invitrogen Cat# A20011) according to manufacturer's instructions. The ratio of Protein/AF750 (mol/mol) was 1/5.9 for 3ee9, 8.9 for human IgG, and 6.0 for M75.
Twelve days before the injection of each fluorescence-labeled antibody, Harlan Balb/C nudes were implanted with MIAPaCa-2 (low MN-expressing; 7.5×10^6 cells in 50% Matrigel) subcutaneously in the right flank, and huMN-MIAPaCa2 (MN transfected stable cell line; 5×10^6 cells in 50% Matrigel) subcutaneously in the left flank. 4 μg of conjugated antibody was injected on Day 0 (12 days post implant) to each animal. Imaging was done on Day 4, Day 5 and Day 10. Data were collected using animals that were anaesthetized (100 mg/kg ketamine/10 mg/kg xylazine, i.p.), and placed inside the imaging system. Multi-spectral image cubes (series of images) were acquired with images spaced every 10 nm throughout the spectral range of 680 to 950 nm, which covered the Near Infrared (NIR) range.
Each image was exposed for 5 seconds. False-colored images were synthesized from the spectral cube using Maestro software and scaled to visible brightness using ImagePro Plus 6.0. […]

[1] = system: 13 other carbonic anhydrases; assay: Binding to other carbonic anhydrases
[2] = system: MN-negative MIAPaca2 cells; assay: In vitro cytotoxicity, MIAPaca2
[3] = system: low MN-expressing MIAPaCa2 pancreatic xenograft; assay: MIAPaCa2 xenograft model; format: in vivo, mice
Experimental: To better understand the relationship between MN expression and antitumor efficacy, xenograft efficacy studies were conducted using a low MN-expressing pancreatic model, MIAPaCa2 and high MN-expressing huMN-MIAPaCa2 model. This latter line was derived by engineering the MIAPaCa2 line to stably express MN. […] 3ee9/MMAE dosed at 10 mg/kg only produced 50% TGI.

Colo-205 CRC xenograft = assay: Colo-205 subcutaneous xenograft model
Source text: The in vivo anti-tumor effect of 3ee9/MMAE was examined in 6 different human xenograft tumor models. These models were established through subcutaneous implantation of human tumor cells into female athymic NCr (nu/nu) mice (Taconic, N.Y.). The human tumor xenograft models evaluated included the MaTu human mammary carcinoma model, the HT-29 and Colo-205 human colo-rectal carcinoma (CRC) models, PC3MM2 prostate carcinoma model, the HCT-15 multi-drug resistant (P-gp) CRC model, and the MiaPaCa2 human pancreatic model. PBS was used as a vehicle, and dosing solutions were prepared fresh daily. The dosing volume was 0.1 mL/10 g (10 mL/kg).
The length and width of each tumor were measured using an electronic caliper 2-3 times per week, and tumor weights (mg) were calculated based on the formula of [length (mm)×width (mm)^2]/2. All data, including daily observations, obtained throughout the course of the study were documented in Anti-tumor Data Acquisition System (ADAS). […] Tumor growth inhibition (TGI) was calculated as (1-T/C)×100, where T=final tumor weights from a treated group after the last dose, and C=final tumor weights from the control group after the last dose. In addition, anti-tumor efficacy was measured as the incidence of responses (or responders or regressions) defined as tumors with ≦50% of their initial size. A minimum duration of 7 days is required for a response to be considered durable.
The anti-tumor activity of 3ee9/MMAE was next evaluated against human prostate (PC-3 mm2) and CRC (Colo-205) tumor xenografts. Female NCr nu/nu mice were implanted subcutaneously (s.c.) either with 5×10^6 PC3 mm2 or Colo-205 cells. Treatment was initiated when tumors were of an average size of approximately 125-150 mg. The general health of mice was monitored and recorded daily. Tumor dimensions and body weights were recorded twice a week starting with the first day of treatment.
In the PC3 mm2 and Colo-205 studies, 3ee9/MMAE was administered intravenously (i.v.) once every 4th day for a total of 3 injections (Q4Dx3) at doses of 1, 3, 10 and 30 mg/kg and 1.25, 2.5, 5 and 10 mg/kg, respectively.
The feasibility of using 3ee9/MMAE in conjunction with other cancer chemotherapeutic agents was investigated. Xeloda® is used as first line treatment of patients with metastatic colorectal carcinoma. The activity and tolerability of combined therapy using 3ee9/MMAE and Xeloda® was evaluated. 3ee9/MMAE was administered i.v. on a Q4Dx3 schedule and at dose levels of 1.25, 2.5 and 10 mg/kg. Xeloda® was administered orally once daily for 9 days at dose levels of 250 and 500 mg/kg.

[4] = Colo-205, 1.25 mg/kg/inj Q4D × 3 IV
[5] = Colo-205, 2.5 mg/kg/inj Q4D × 3 IV
[6] = Colo-205, 10 mg/kg/inj Q4D × 3 IV

Q: Which “cells affected by treatment in tumors” value (tubulin in HT-29 tumors; 5 mg/kg Q1Dx1, day 5) does the source give for “3ee9/MMAE: human anti-MN IgG1 antibody 3ee9 conjugated to Monomethylauristatin E (MMAE)” here?
A: almost all cells

Q: And the “effect on cell mechanism in tumors” value (tubulin in HT-29 tumors; 1.25 and 5 mg/kg Q1Dx1, 4 hr samples)?
A: little effect

Q: And the “G2/M arrest, spindle and tubulin staining in tumors” value (tubulin in HT-29 tumors; 1.25 and 5 mg/kg Q1Dx1, day 1)?
A: increased numbers of cells were in G2/M arrest

Q: What about the internalization (MN-negative cells (DLD1)) of the same substance?
A: not by MN-negative cells (DLD1)

Q: What about the In vivo distribution (In vivo distribution) of the same substance?
A: normal

Q: And the “binding to other carbonic anhydrases” value [1]?
A: no detectable binding

Q: What about the cytotoxicity ([2]; MIAPaca2 (MN−)) of the same substance?
A: not to MN-negative MIAPaca2 cells

Q: What about the “killing of MN-negative cells” value ([2]; doses as high as 1 uM) of the same substance?
A: Less than 10%

Q: What about the EC50 ([2]; read-out: Cytotoxicity: MN− (ec50), MN− cells) of the same substance?
A: > 1000 nM

Q: What about the “effect in inhibiting growth” value [3] of the same substance?
A: minimal effect

Q: And the “% Inhibition (T/C) (d 17)” value (Colo-205 CRC xenograft; [4])?
A: 30.6%

Q: What about the “% Regressions” value (Colo-205 CRC xenograft; [4]) of the same substance?
A: 0%

Q: What about the “% Weight Loss (d 17)” value (Colo-205 CRC xenograft; [4]) of the same substance?
A: 0.5%

Q: What about the TGI (Colo-205 CRC xenograft; Colo-205, 2.5 mg/kg i.v. Q4Dx3, end of dosing) of the same substance?
A: > 70%

Q: What about the “% Inhibition (T/C) (d 17)” value (Colo-205 CRC xenograft; [5]) of the same substance?
A: 73%

Q: What about the “% Regressions” value (Colo-205 CRC xenograft; [5]) of the same substance?
A: 0%

Q: And the “% Weight Loss (d 17)” value (Colo-205 CRC xenograft; [5])?
A: 0.1%

Q: What about the “responses (regressions)” value (Colo-205 CRC xenograft; Colo-205, 5 mg/kg Q4Dx3) of the same substance?
A: 40%

Q: What about the “responses (regressions)” value (Colo-205 CRC xenograft; Colo-205, 10 mg/kg Q4Dx3) of the same substance?
A: 80%

Q: And the “% Inhibition (T/C) (d 17)” value (Colo-205 CRC xenograft; [6])?
A: 96.2%

Q: What about the “% Regressions” value (Colo-205 CRC xenograft; [6]) of the same substance?
A: 80%

Q: What about the “% Weight Loss (d 17)” value (Colo-205 CRC xenograft; [6]) of the same substance?
A: 0.9%

Q: And the TGI (Colo-205 CRC xenograft; Colo-205, 5 and 10 mg/kg i.v. Q4Dx3, end of dosing)?
A: > 90%

Q: What about the TGI (Colo-205 CRC xenograft; Colo-205, alone 1.25 mg/kg i.v. Q4Dx3) of the same substance?
A: 31%

Q: What about the TGI (Colo-205 CRC xenograft; Colo-205, alone 2.5 mg/kg i.v. Q4Dx3) of the same substance?
A: 73%

Q: And the response rate (Colo-205 CRC xenograft; Colo-205, alone 10 mg/kg)?
A: 80%

Q: And the TGI (Colo-205 CRC xenograft; Colo-205, alone 10 mg/kg i.v. Q4Dx3)?
A: 96%

Q: What about the anti-tumor effect (Colo-205 CRC xenograft; Colo-205, lowest dose, 1 mg/kg) of the same substance?
A: relatively ineffective

Q: And the anti-tumor effects (Colo-205 CRC xenograft; Colo-205 human colo-rectal cancer xenograft model)?
A: anti-tumor effects were seen
